Data published in US20090118271A1, “Preventive or Therapeutic Agents for Pancreatic Cancer, Ovarian Cancer, or Liver Cancer Comprising a Novel Water-Soluble Prodrug” (CHUGAI SEIYAKU KABUSHIKI KAISHA, priority 2005, published 2009).

Key:
Format in all cases: in vivo
[1] = tested on: human pancreatic cancer cell line AsPC-1; test: Antitumor effect in AsPC-1 tumor-bearing nude mice; conditions: AsPC-1 s.c. xenograft, BALB/c nude mice, 60 mg/kg/inj. (47 in terms of free base) intravenously, once a week for three weeks
Protocol: (§1) Antitumor effects were determined for representative examples of the compound groups of the present invention. Antitumor effects were determined using tumor-bearing mice generated by subcutaneous transplantation of human pancreatic cancer cell line AsPC-1 obtained from American Type Culture Collection (Virginia, USA) into the right ventral neck of BALB/c nude mice purchased from Japan Charles River.
After a one-week quarantine period, the purchased nude mice were subjected to subcutaneous transplantation of 4.8×10^6 AsPC-1 cells to their right ventral neck. Mice with a tumor size reaching 200 mm^3 or so were subjected to the experiment.
(§2) The compounds were dissolved in 1 mM citric acid/physiological saline (pH3.1-3.2), and were administered intravenously. The administration was carried out once a week for three weeks, for a total of three administrations. The antitumor effect was determined as tumor growth inhibition (TGI), using the following equation.
(§3) Tumor growth inhibition (TGI) (%)={(1−amount of tumor growth in the group treated with the drug/amount of tumor growth in the control group)×100}

[2] = tested on: human pancreatic cancer cell line BxPC-3; test: Antitumor effect in BxPC-3 tumor-bearing nude mice; conditions: BxPC-3 s.c. xenograft, BALB/c nude mice, 66 mg/kg/inj. (47 in terms of free base) intravenously, once a week for three weeks
Protocol: as §1, with “BxPC-3” for “AsPC-1”
After a seven-day quarantine period, the purchased nude mice were subjected to subcutaneous transplantation of 9×10^6 BxPC-3 cells to their right ventral neck. Mice with a tumor size reaching 400 mm^3 or so were subjected to the experiment.
as §2, §3

[3] = tested on: human liver cancer cell line PLC/PRF/5; test: Antitumor effect in PLC/PRF/5 tumor-bearing nude mice; conditions: PLC/PRF/5 s.c. xenograft, BALB/c nude mice, 60 mg/kg/inj. (47 in terms of free base) intravenously, once a week for three weeks
Protocol: as §1, with “liver” for “pancreatic”, “PLC/PRF/5” for “AsPC-1”, “Human Science” for “American Type Culture Collection (Virginia, USA)”
After a one-week quarantine period, the purchased nude mice were subjected to subcutaneous transplantation of 20×10^6 PLC/PRF/5 cells to their right ventral neck. Mice with a tumor size reaching 200 mm^3 or so were subjected to the experiment.
(§4) The compounds were dissolved in physiological saline, and were administered intravenously. The administration was carried out once a week for three weeks, for a total of three administrations. The antitumor effect was determined as tumor growth inhibition (TGI), using the following equation.
as §3

[4] = tested on: human ovarian cancer cell line SK-OV-3; test: Antitumor effect in SK-OV-3 tumor-bearing nude mice; conditions: SK-OV-3 s.c. xenograft, BALB/c nude mice, 60 mg/kg/inj. (47 in terms of free base) intravenously, once a week for three weeks
Protocol: Antitumor effects were determined for representative examples of the compound groups of the present invention. Antitumor effects were determined using tumor-bearing mice generated by subcutaneous transplantation of the human ovarian cancer cell line SK-OV-3 obtained from American Type Culture Collection (Virginia, USA) into the right ventral neck of BALB/c nude mice purchased from Japan Charles River.
After a six-day quarantine period, the purchased nude mice were subjected to subcutaneous transplantation of a 2-3 mm square piece of the SK-OV-3 tumor to their right ventral neck. Mice with a tumor size reaching 210 mm^3 or so were subjected to the experiment.
as §4, §3

[5] = tested on: human pancreatic cancer cell line Capan-1; test: Antitumor effect in Capan-1 tumor-bearing nude mice; conditions: Capan-1 s.c. xenograft, BALB/c nude mice, 66 mg/kg/inj. (47 in terms of free base) intravenously, once a week for three weeks
Protocol: as §1, with “Capan-1” for “AsPC-1”
After a 19-day quarantine period, the purchased nude mice were subjected to subcutaneous transplantation of 10×10^6 Capan-1 cells to their right ventral neck. Mice with a tumor size reaching 260 mm^3 or so were subjected to the experiment.
as §2, §3

[6] = tested on: human ovarian cancer cell line PA-1; test: Antitumor effect in PA-1 tumor-bearing nude mice; conditions: PA-1 s.c. xenograft, BALB/c nude mice, 40 mg/kg/inj. (32 in terms of free base) intravenously, once a week for three weeks
Protocol: Antitumor effects were determined for representative examples of the compound groups of the present invention. Antitumor effects were determined using tumor-bearing mice generated by the subcutaneous transplantation of human ovarian cancer cell line PA-1 obtained from American Type Culture Collection (Virginia, USA) into the right ventral neck of BALB/c nude mice purchased from Japan Charles River.
After a one-week quarantine period, the purchased nude mice were subjected to subcutaneous transplantation of 9.8×10^6 PA-1 cells to their right ventral neck. Mice with a tumor size reaching 200 mm^3 or so were subjected to the experiment.
as §4
Tumor growth inhibition (TGI) (%) {(1−amount of tumor growth in the group treated with the drug/amount of tumor growth in the control group)×100}

In the case of `CCCCCN1C=Nc2cccc3nc4c(c1c23)Cn1c-4cc2c(c1=O)COC(=O)[C@@]2(CC)OC(=O)CN(C)C(=O)CN.Cl` [Compound 2A, (9S)-9-Ethyl-9-(glycyl-sarcosyloxy)-1-pentyl-1H,12H-pyrano[3″,4″:6′,7′]indolizino[1′,2′:6,5]pyrido[4,3,2-de]quinazoline-10,13(9H,15H)-dione Hydrochloride], the “TGI (%) on Day 21” value [1] is reported as 73%, the “TGI (%) on Day 14” value ([2]; Day 14) is reported as 55% and the “TGI (%) on Day 21” value ([2]; Day 21) is reported as 47%. For the same molecule, the “TGI (%) on Day 21” value [3] was 84%, the “TGI (%) on Day 21” value [4] was 52% and the “TGI (%) on Day 21” value [5] was 122%. The “TGI (%) on Day 21” value [6] was 84%.
